Data on 13 molecules can be found in US20080076129A1, “Method of Detecting an Increased Susceptibility to Breast Cancer” (priority 2000, published 2008).

Changes are numbered by the printed parent chain.

For data set [1], the target named is T1, COMT (Homo sapiens, UniProt P21964).
T1 construct: made in house; host or cells: Escherichia coli DH5αF′Iq
T1 sequence (P21964 51-271): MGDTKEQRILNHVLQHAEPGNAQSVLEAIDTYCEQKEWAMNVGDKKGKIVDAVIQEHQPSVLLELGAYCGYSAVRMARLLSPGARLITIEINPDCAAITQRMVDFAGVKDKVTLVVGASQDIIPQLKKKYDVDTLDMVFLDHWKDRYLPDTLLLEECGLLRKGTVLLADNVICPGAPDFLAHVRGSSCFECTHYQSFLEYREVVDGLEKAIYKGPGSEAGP
Description: Assay of COMT activity, purified recombinant His-COMT, methylation of catechol estrogens. The conditions noted are these: for Km: formation of the named product from its catechol estrogen, recombinant His-COMT, 200 μM SAM, 10 min at 37° C.; for kcat: formation of the named product, in min-1 (unit assumed); for pattern of rates of methylation: substrate 2-100 μM; for formation of product by COMT: methylation of 4-OHE2 and 4-OHE1; for Hill Coefficient: sigmoidal fit. The format is biochemical. As to the method: Assay of COMT Activity. Purified recombinant His-COMT (300 pmol) was reconstituted 0.5 ml of 100 mM KPO4, pH 7.4, containing 5 mM MgCl2, 10 mM β-mercaptoethanol, and 200 μM SAM. Reactions were initiated by adding varying concentrations of each individual catechol estrogen (2, 3, 6, 9, 12, 15, 20, 40, 60, 80, and 100 μM). Blanks contained all compounds except SAM. Reactions proceeded for 10 min at 37° C. with gentle shaking and then were terminated by addition of 2 ml CH2Cl2. To determine COMT activity in breast cancer cells, ZR-75 and MCF-7 cells were harvested at confluency and homogenized in 100 mM KPO4, pH 7.4, 5 mM MgCl2, 10 mM β-mercaptoethanol. Following ultracentrifugation of the cell homogenate (110,000 g, 30 min, 4° C.), the supernatant cytosol was divided into aliquots for ICELISA, protein determination (BCA assay; Pierce, Rockford, Ill.), and COMT assay. The latter was carried out in the presence of 200 μM SAM and 100 μM catechol estrogen for 20 min at 37° C. and then terminated by addition of CH2Cl2. The concentration of endogenous catechol and methoxy estrogens was below the limit of detection by gas chromatography/mass spectrometry.
Extraction and Gas Chromatography/Mass Spectrometry Analysis of Catechol Estrogens. A deuterated internal standard (100 μl of 8 mg/liter E2-d4 in methanol) was added and all estrogens extracted into the CH2Cl2 by vortex mixing for 30 s. 1.5 ml of the CH2Cl2 fraction was evaporated to dryness under air and volatile TMS derivatives prepared by heating the residue with 100 μl of 50% NO-bis(trimethylsilyl)trifluoroacetamide/1% trimethyl chlorosilane in acetonitrile at 56° C. for 30 min. The TMS derivatives of the estrogen metabolites were separated by gas chromatography (H-P 5890, Hewlett-Packard, Wilmington, Del.) on a 5% phenyl methyl silicone stationary phase fused silica capillary column (30 m×0.2 mm×0.5 μm film, HP5; Hewlett-Packard). Helium carrier gas was used at a flow of 1 ml/min. The injector was operated at 250° C., with 2 μl injected in the splitless mode, with a purge (60 ml/min helium) time of 0.6 min. The oven temperature was held at 180° C. for 0.5 min, then raised at 6° C./min to 250° C. where it was held for 17 min, then raised to 300° C. at 8° C./min to give a total run time of 35.42 min. This program permitted adequate separation of a wide range of estrogen metabolites. Retention times (in min) for the TMS derivatives were E1 20.13, E2 and E2-d4 21.89, 4-MeOE1 23.52, 2-MeO-3-MeOE1 (underivatized) 23.75, 2-OH-3-MeOE1 24.87, 2-MeOE1 25.2, 4-MeOE2 25.78, 2-OHE1 and 2-MeO-3-MeOE2 26.19, 2-OH-3-MeOE2 26.9, 2-MeOE2 27.18, 4-OHE1 27.27, 6α-OHE2 27.29, 2-OHE2 27.44, 4-OHE2 28.06, E3 28.38. The EI mass spectrometer (H-P 5970) was operated in the selected ion monitoring mode from 18 to 30 min. Ions monitored were TMS-E1 342, 257, 343; TMS2-E2-d4 420, 421, 287; TMS2-E2 416, 417, 285; TMS-4-MeOE1, TMS-2-OH-3-MeOE1, TMS-2-MeOE1 and TMS-3-MeO-4-OHE1 372, 373, 342; 2-MeO-3-MeOE1 314, 315, 229; TMS2-4-MeOE2, TMS2-2-OH-3-MeOE2, TMS2-2-MeOE2 and TMS2-3-MeO-4-OHE2 446, 447, 315; TMS2-2-OHE1 430, 431, 432; TMS-2-MeO-3-MeOE2 388, 389, 257; TMS2-4-OHE1 430, 431, 345; TMS2-6α-OHE2 414, 283, 309; TMS3-2-OHE2 and TMS3-4-OHE2 504, 505, 373; TMS3-E3 504, 505, 311 (FIG. 7). The instrument was calibrated by simultaneous preparation of an 11-point calibration over the range 0-22 nmol/tube of each compound. Sensitivity was determined to be between 0.02 and 0.04 nmol/tube (400-800 fmol on column) for the various compounds. […] Absolute extraction efficiency for E2, 2-OH-E2 and 4-OH-E2 at 3.5 nmol/tube was 119, 96, and 107% assessed by comparison to injections of spiked solvent samples onto the gas chromatograph. Internal standard added prior to extraction compensated for deviation from 100% recovery for all investigated compounds.
Statistical Analysis. […]

The test system of data set [2] is Syrian hamster. The note with it: in vivo; cited from earlier work.
The test system of data set [3] is renal DNA. The conditions noted are these: in vivo; cited from earlier work.
Data set [4] has as its system CYP1B1. Description: Assay of CYP1B1 E2 hydroxylation activity. The note with it: for 2-OH-Estradiol kcat: E2 2-hydroxylation; for 4-OH-Estradiol kcat: E2 4-hydroxylation; for 16a-OH-Esrradiol kcat: E2 16α-hydroxylation. Format: biochemical, human. As to the method: Assay of CYP1B1 E2 Hydroxylation Activity. Purified CYP1B1 (200 pmol) was reconstituted with a 2-fold molar amount of recombinant rat NADPH-P450 reductase (400 pmol), purified as previously described, and 60 μg of L-α-dilauroyl-sn-glycero-3-phosphocholine in the presence of sodium cholate (0.005%, w/v) in 0.4 ml of 100 mM potassium phosphate buffer, pH 7.4, containing varying concentrations of E2 (2, 3, 6, 9, 12, 15, 20, 40, 60, 80, and 100 μM) and 1 mM ascorbate. An NADPH-generating system consisting of 5 mM glucose 6-phosphate and 0.5 U of glucose-6-phosphate dehydrogenase/ml was added and reactions initiated by adding NADP+ to a final concentration of 0.5 mM. Reactions proceeded for 10 min at 37° C. with gentle shaking and then were terminated by addition of 2 ml CH2Cl2.
Extraction and Gas Chromatography/Mass Spectrometry Analysis of E2 and Metabolites. A deuterated internal standard (100 μl of 8 mg/liter E2-2, 4, 16, 16-d4 in methanol; CDN Isotopes, Pointe-Claire, Quebec) was added and all steroids extracted into CH2Cl2 by vortex mixing for 30 s. 1.5 ml of the CH2Cl2 fraction was evaporated to dryness under air and volatile TMS derivatives prepared by heating the residue with 100 μl of 50% NO-bis(trimethylsilyl)trifluoroacetamide/1% trimethyl chlorosilane in acetonitrile at 56° C. for 30 min. The TMS derivatives of E2 and its metabolites were separated by gas chromatography (H-P 5890, Hewlett-Packard, Wilmington, Del.) on a 5% phenyl methyl silicone stationary phase fused silica capillary column (30 m×0.2 mm×0.5 μm film, HP5; Hewlett-Packard). Helium carrier gas was used at a flow of 1 ml/min. The injector was operated at 250° C., with 2 μl injected in the splitless mode, with a purge (60 ml/min helium) time of 0.6 min. The oven temperature was held at 189° C. for 0.5 min, then raised at 6° C./min to 250° C. where it was held for 17 min, then raised to 300° C. at 8° C./min to give a total run time of 35.42 min. […] The EI mass spectrometer (H-P 5970) was operated in the selected ion monitoring mode from 18 to 34 min. Ions monitored were TMS2-E2-d4 420, 288, 330; TMS2-E2 416, 285, 326; TMS3-2-OH-E2 504, 373; TMS3-4-OH-E2 504, 373, 325; TMS3-16α-OH-E2 345, 311, 504. The instrument was calibrated by simultaneous preparation of an 11-point calibration over the range […]/tube of each compound. […] Internal standard added prior to extraction compensated for deviation from 100% recovery.
Statistical Analysis. Kinetic parameters (Km and kcat) were determined by nonlinear regression analysis using the computer program GraphPad PRISM (San Diego, Calif.).

Regarding `COc1cc2c(cc1O)CC[C@@H]1[C@@H]2CC[C@]2(C)C(=O)CC[C@@H]12` [2-MeOE1], in data set [1], the Km was 74 ± 8 µM and the kcat is listed as 3.3 ± 0.2.
Regarding `COc1cc2c(cc1O)CC[C@@H]1[C@@H]2CC[C@]2(C)[C@@H](O)CC[C@@H]12` [2-MeOE2], in data set [1], the Km was 108 ± 9 µM and the kcat is listed as 6.8 ± 0.4.
`COc1cc2c(cc1O)[C@H]1CC[C@]3(C)C(=O)CC[C@H]3[C@@H]1CC2` [2-OH-3-MeOE1]: in data set [1], the Km turned out to be 73 ± 16 µM and the kcat is on record as 2.8 ± 0.4.
For the molecule `COc1cc2c(cc1O)[C@H]1CC[C@]3(C)[C@@H](O)CC[C@H]3[C@@H]1CC2` [2-OH-3-MeOE2], in data set [1], the Km came to 51 ± 5 µM and the kcat amounted to 1.5 ± 0.1.
`C[C@]12CC[C@@H]3c4cc(O)c(O)cc4CC[C@H]3[C@@H]1CCC2=O` [2-OHE1]: the “pattern of rates of methylation” value in data set [1] is listed as “typical hyperbolic patterns”.
Consider `COc1ccc2c(c1O)CC[C@@H]1[C@@H]2CC[C@]2(C)C(=O)CC[C@@H]12` [3-MeO-4-OHE1], for which the “formation of product by COMT” value in data set [1] is given as “not observed”.
For `COc1ccc2c(c1O)CC[C@@H]1[C@@H]2CC[C@]2(C)[C@@H](O)CC[C@@H]12` [3-MeO-4-OHE2], in data set [1], the “formation of product by COMT” value is “not observed”.
Regarding `COc1c(O)ccc2c1CC[C@@H]1[C@@H]2CC[C@]2(C)C(=O)CC[C@@H]12` [4-MeOE1], in data set [1], the Km was 53 ± 6 µM, the kcat came to 6.7 ± 0.4 and the “Hill Coefficient” value was 2.0 ± 0.4.
In the same order, the values of `COc1c(O)ccc2c1CC[C@@H]1[C@@H]2CC[C@]2(C)[C@@H](O)CC[C@@H]12` [4-MeOE2] are 24 ± 3 µM, 3.4 ± 0.2 and 1.6 ± 0.2.
On to `C[C@]12CC[C@@H]3c4ccc(O)c(O)c4CC[C@H]3[C@@H]1CCC2=O` [4-OHE1], for which, in data set [1], the “pattern of rates of methylation” value was “sigmoid curve pattern”. The “induction of renal cancer” value in data set [2] is given as “induced renal cancer”. Also, the “levels of the oxidized base 8-hydroxy-deoxyguanosine” value in data set [3] is on record as “significantly increased”.

B1: Variant 4: recombinant CYP1B1 with 48Arg, 119Ala, 432Val, 453Ser (protein, UniProt Q16678 1-543, looked up, variant N453S)
Cytochrome P450 1B1: MGTSLSPNDPWPLNPLSIQQTTLLLLLSVLATVHVGQRLLRQRRRQLRSAPPGPFAWPLIGNAAAVGQAAHLSFARLARRYGDVFQIRLGSCPIVVLNGERAIHQALVQQGSAFADRPAFASFRVVSGGRSMAFGHYSEHWKVQRRAAHSMMRNFFTRQPRSRQVLEGHVLSEARELVALLVRGSADGAFLDPRPLTVVAVANVMSAVCFGCRYSHDDPEFRELLSHNEEFGRTVGAGSLVDVMPWLQYFPNPVRTVFREFEQLNRNFSNFILDKFLRHCESLRPGAAPRDMMDAFILSAEKKAAGDSHGGGARLDLENVPATITDIFGASQDTLSTALQWLLLLFTRYPDVQTRVQAELDQVVGRDRLPCMGDQPNLPYVLAFLYEAMRFSSFVPVTIPHATTANTSVLGYHIPKDTVVFVNQWSVNHDPLKWPNPENFDPARFLDKDGLISKDLTSRVMIFSVGKRRCIGEELSKMQLFLFISILAHQCDFRANPNEPAKMNFSYGLTIKPKSFKVNVTLRESMELLDSAVQNLQAKETCQ
B1: in data set [4], the 2-OH-Estradiol kcat turned out to be 0.0467 ± 0.0033 s⁻¹, the 4-OH-Estradiol kcat is 0.075 ± 0.005 s⁻¹ and the 16a-OH-Esrradiol kcat is 0.0065 ± 0.00033 s⁻¹.

B2: Variant 2: recombinant CYP1B1 with 48Arg, 119Ser, 432Val, 453Asn (protein, UniProt Q16678 1-543, looked up, variant A119S)
Cytochrome P450 1B1: B1 Cytochrome P450 1B1 with A119S, S453N
With B2, in data set [4], the 2-OH-Estradiol kcat is 0.0383 ± 0.0017 s⁻¹, the 4-OH-Estradiol kcat is 0.0633 ± 0.0017 s⁻¹ and the 16a-OH-Esrradiol kcat was found to be 0.00567 ± 0.00033 s⁻¹.

B3: Variant 1: recombinant CYP1B1 with 48Gly, 119Ala, 432Val, 453Asn (protein, UniProt Q16678 1-543, looked up, variant R48G)
Cytochrome P450 1B1: B1 Cytochrome P450 1B1 with R48G, S453N
In data set [4], B3 had a 2-OH-Estradiol kcat of 0.0533 ± 0.0033 s⁻¹, a 4-OH-Estradiol kcat of 0.1 ± 0.0033 s⁻¹ and a 16a-OH-Esrradiol kcat of 0.00933 ± 0.00067 s⁻¹.
